Experimental data from patent US10899747B2, “Biaryl piperidine amide compounds and methods of use thereof” (Athenex, Inc., priority 2017, dated 2021).

tested on: IL-2; assay: PHA-IL2 (cell activation and cytokine analysis); assay type: cell-based; details: 50% inhibition concentration class
Description: Cells to be tested may include, but are not limited to, a) Jurkat (a transformed human T cell leukemia), b) whole blood isolated from human or rodent sources, c) peripheral blood mononuclear cells (PBMC) freshly isolated from human or rodent whole blood, or d) purified fractions of PBMC (e.g., CD4 T cells). Cells are plated in 96-well plates at a final density of 1.0-2.0×10^6 cells/ml in 150 ul of assay medium (RPMI+0.5% fetal calf serum). Test compounds are included at a final concentration of ≤20 uM and generally pre-incubated with cells for 30 minutes prior to stimulation. An appropriate stimulus is added, including but not limited to, a) phytohemagglutinin (PHA), b) phorbol myristate acetate (PMA) and ionomycin, or c) stimulatory antibodies to the T cell receptor (TCR) complex (e.g., anti-CD3ε) and CD28. Cell cultures are stimulated for 24-48 hours in a humidified incubator (37 degrees C./5% CO2). A fraction of the culture supernatant is than harvested from each well and assayed for the presence of appropriate cytokine using standard ELISA. Cytokines to be analyzed may include IL-2, IL-4, IL-10, IL-17, IL-22, IFNγ, and/or TNFα. If required, the number of cytokine producing cells can be determined using intracellular staining and flow cytometry. […]

Structure (SMILES) | IC50 [nM]
O=C(COc1ccccc1-c1ccccc1O)N1CCC(CCc2ccc(O)cc2)CC1 [Compound 282] | < 1000
O=C(COc1ccccc1-c1ccc(Cl)nc1)N1CCC(CCc2ccc(O)cc2)CC1 [Compound 283] | < 1000
O=C1NCCOc2ccc(CCC3CCN(C(=O)COc4ccccc4-c4ccccc4)CC3)cc21 [Compound 284] | < 1000
O=C(COc1ccccc1-c1ccccc1)N1CCC(CCc2cc3c(cc2CO)OCO3)CC1 [Compound 285] | 1000 to 10000
O=C(CSc1ccccc1-c1ccccc1)N1CCC(CCc2ccc3c(c2)OCO3)CC1 [Compound 286] | 1000 to 10000
COc1cccc(CCC2CCN(C(=O)CSc3ccccc3-c3ccccc3)CC2)c1 [Compound 287] | 1000 to 10000
O=C(COc1ccccc1-c1ccc(F)cc1O)N1CCC(CCc2ccc3c(c2)OCO3)CC1 [Compound 288] | < 1000
N#Cc1ccc(-c2ccccc2OCC(=O)N2CCC(CCc3ccc4c(c3)OCO4)CC2)cn1 [Compound 289] | < 1000
COC(=O)c1ccc(CCC2CCN(C(=O)COc3ccccc3-c3ccc(C#N)cc3)CC2)cc1 [Compound 290] | < 1000
N#Cc1ccc(-c2ccccc2OCC(=O)N2CCC(CCc3ccc4c(c3)OCCO4)CC2)cc1 [Compound 291] | < 1000
O=C(COc1ccccc1-c1ccc(Cl)nc1)N1CCC(CCc2ccc3c(c2)OCCO3)CC1 [Compound 292] | 1000 to 10000
O=C(COc1ccccc1-c1ccc2[nH]ncc2c1)N1CCC(CCc2ccc3c(c2)OCCO3)CC1 [Compound 293] | < 1000
O=C(COc1ccccc1-c1ccc(F)cc1)N1CCC(CCc2ccc3c(c2)OCCO3)CC1 [Compound 294] | 1000 to 10000
O=C(COc1ccccc1-c1ccccc1O)N1CCC(CCc2ccc3c(c2)OCCO3)CC1 [Compound 295] | 1000 to 10000
O=C(COc1ccccc1-c1ccc(F)cc1O)N1CCC(CCc2ccc3c(c2)OCCO3)CC1 [Compound 296] | < 1000
N#Cc1ccc(-c2ccccc2OCC(=O)N2CCC(CCc3ccc4c(c3)OCCO4)CC2)cn1 [Compound 297] | < 1000
Cc1cc2c(cc1CCC1CCN(C(=O)COc3ccccc3-c3ccc(C#N)cc3)CC1)OCO2 [Compound 298] | < 1000
N#Cc1ccc(-c2ccccc2OCC(=O)N2CCC(CCc3cccc4c3OCO4)CC2)cc1 [Compound 299] | < 1000
CCCOc1ccc(CCC2CCN(C(=O)COc3ccccc3-c3ccc(C#N)cc3)CC2)cc1OCCC [Compound 300] | < 1000
CC(C)Oc1ccc(CCC2CCN(C(=O)COc3ccccc3-c3ccc(C#N)cc3)CC2)cc1OC(C)C [Compound 301] | < 1000
CC1CC(CCc2ccccc2)CCN1C(=O)COc1ccccc1-c1ccc(C#N)cc1 (centres unmarked) [Compound 302] | < 1000
CC1CC(CCc2ccccc2)CCN1C(=O)COc1ccccc1-c1ccc(F)cc1O (centres unmarked) [Compound 303] | 1000 to 10000
COc1cccc(CCC2CCN(C(=O)COc3ccccc3-c3ccc(F)cc3O)CC2)c1 [Compound 304] | < 1000
O=C(COc1ccccc1-c1ccc(F)cc1O)N1CCC(CCc2ccc(N3CCOCC3)cc2)CC1 [Compound 305] | < 1000

Structure (SMILES) | IC50 [nM]
Cc1ccc(F)cc1CCC1CCN(C(=O)COc2ccccc2-c2ccc(F)cc2O)CC1 [Compound 306] | < 1000
O=C(COc1ccccc1-c1ccc(F)cc1O)N1CCC(CCc2ccc(F)c(C(F)(F)F)c2)CC1 [Compound 307] | 1000 to 10000
COCc1ccc(CCC2CCN(C(=O)COc3ccccc3-c3ccc(F)cc3O)CC2)cc1 [Compound 308] | < 1000
CCOc1ccc(CCC2CCN(C(=O)COc3ccccc3-c3ccc(F)cc3O)CC2)cc1 [Compound 309] | < 1000
O=C(COc1ccccc1-c1ccc(F)cc1O)N1CCC(CCc2cccc(C(F)(F)F)c2)CC1 [Compound 310] | < 1000
CCOc1ccc(CCC2CCN(C(=O)COc3ccccc3-c3ccc(C(=O)c4ccccc4)cc3)CC2)cc1 [Compound 311] | < 1000
O=C(C[S+]([O-])c1ccccc1-c1ccccc1)N1CCC(CCc2ccccc2)CC1 (centres unmarked) [Compound 312] | 10000 to 50000
COc1cccc(CCC2CCN(C(=O)C[S+]([O-])c3ccccc3-c3ccccc3)CC2)c1 (centres unmarked) [Compound 313] | 10000 to 50000
O=C(c1ccccc1)c1ccc(-c2ccccc2OCC(=O)N2CCC(CCc3ccc(O)cc3)CC2)cc1 [Compound 314] | < 1000
N#Cc1ccc(-c2cc(C(=O)O)ccc2OCC(=O)N2CCC(CCc3ccccc3)CC2)cc1 [Compound 315] | 1000 to 10000
CN(C)C(=O)c1ccc(OCC(=O)N2CCC(CCc3ccccc3)CC2)c(-c2ccc(C#N)cc2)c1 [Compound 316] | 1000 to 10000
CC(C)NC(=O)c1ccc(OCC(=O)N2CCC(CCc3ccccc3)CC2)c(-c2ccc(C#N)cc2)c1 [Compound 317] | < 1000
N#Cc1ccc(-c2cc(C(=O)N3CCOCC3)ccc2OCC(=O)N2CCC(CCc3ccccc3)CC2)cc1 [Compound 318] | 1000 to 10000
CC(C)NC(=O)c1ccc(OCC(=O)N2CCC(CCc3ccccc3)CC2)c(-c2ccc(F)cc2O)c1 [Compound 319] | 10000 to 50000
NC(=O)c1ccc(OCC(=O)N2CCC(CCc3ccccc3)CC2)c(-c2ccc(F)cc2O)c1 [Compound 320] | < 1000
N#Cc1ccc(-c2cc(C(N)=O)ccc2OCC(=O)N2CCC(CCc3ccccc3)CC2)cc1 [Compound 321] | 1000 to 10000
N#Cc1ccc(-c2cc(C(=O)NCCO)ccc2OCC(=O)N2CCC(CCc3ccccc3)CC2)cc1 [Compound 322] | 1000 to 10000
N#Cc1ccc(-c2ncccc2OCC(=O)N2CCC(CCc3ccc4c(c3)OCO4)CC2)cc1 [Compound 323] | 1000 to 10000
N#Cc1ccc(-c2cccnc2OCC(=O)N2CCC(CCc3ccc4c(c3)OCO4)CC2)cc1 [Compound 324] | 1000 to 10000
CN(C)CCNC(=O)c1ccc(OCC(=O)N2CCC(CCc3ccccc3)CC2)c(-c2ccc(C#N)cc2)c1 [Compound 325] | 1000 to 10000
O=C(COc1cccnc1-c1ccc(F)cc1O)N1CCC(CCc2ccc3c(c2)OCO3)CC1 [Compound 326] | 1000 to 10000
N#Cc1ccc(-c2cnccc2OCC(=O)N2CCC(CCc3ccc4c(c3)OCO4)CC2)cc1 [Compound 327] | 10000 to 50000
O=C(COc1cccnc1-c1ccc2[nH]ncc2c1)N1CCC(CCc2ccc3c(c2)OCO3)CC1 [Compound 328] | 1000 to 10000
O=C(COc1ncccc1-c1ccc(F)cc1O)N1CCC(CCc2ccc3c(c2)OCO3)CC1 [Compound 329] | 10000 to 50000

Structure (SMILES) | IC50 [nM]
O=C(COc1cccnc1-c1ccc(F)cc1O)N1CCC(CCc2ccccc2)CC1 [Compound 330] | 1000 to 10000
O=C(COc1ccncc1-c1ccc(F)cc1O)N1CCC(CCc2ccc3c(c2)OCO3)CC1 [Compound 331] | 10000 to 50000
O=C(c1ccccc1)c1ccc(-c2ccccc2OCC(=O)N2CCC(CCc3cc(Br)c(O)c(Br)c3)CC2)cc1 [Compound 332] | 1000 to 10000
Cc1cc(F)ncc1-c1ncccc1OCC(=O)N1CCC(CCc2ccccc2)CC1 [Compound 333] | 10000 to 50000
N#Cc1ccc(-c2ncccc2OCC(=O)N2CCC(CCc3ccccc3)CC2)cn1 [Compound 334] | 1000 to 10000
N#Cc1ccc(-c2ncccc2OCC(=O)N2CCC(CCc3ccc4c(c3)OCCO4)CC2)cn1 [Compound 335] | 1000 to 10000
Cc1cc(F)ncc1-c1ncccc1OCC(=O)N1CCC(CCc2ccc3c(c2)OCCO3)CC1 [Compound 336] | 10000 to 50000
O=C(COc1cccnc1-c1ccc(F)cc1O)N1CCC(CCc2ccc3c(c2)OCCO3)CC1 [Compound 337] | < 1000
O=C(COc1cccnc1-c1ccc(F)cc1O)N1CCC(CCc2ccc3c(c2)OCCCO3)CC1 [Compound 338] | 1000 to 10000
O=C(COc1cccnc1-c1ccc(F)nc1)N1CCC(CCc2ccc3c(c2)OCCCO3)CC1 [Compound 339] | 1000 to 10000
O=C(COc1cccnc1-c1ccc(F)nc1)N1CCC(CCc2ccc3c(c2)OCO3)CC1 [Compound 340] | 1000 to 10000
O=C(COc1cccnc1-c1ccc(F)nc1)N1CCC(CCc2ccc3c(c2)OCCO3)CC1 [Compound 341] | 1000 to 10000
N#Cc1ccc(-c2ncccc2OCC(=O)N2CCC(CCc3ccc4c(c3)OCCCO4)CC2)cn1 [Compound 342] | 10000 to 50000
O=C(COc1ccccc1-c1ccc2cc[nH]c2c1)N1CCC(CCc2ccc3c(c2)OCCCO3)CC1 [Compound 343] | 10000 to 50000
O=C(/C=C/c1ccccc1-c1ccc(F)cc1O)N1CCC(CCc2ccc3c(c2)OCO3)CC1 [Compound 344] | 1000 to 10000
N#Cc1ccc(OCC(=O)N2CCC(CCc3ccccc3)CC2)c(-c2ccc(F)cc2O)c1 [Compound 345] | < 1000
N#Cc1ccc(OCC(=O)N2CCC(CCc3ccc4c(c3)OCO4)CC2)c(-c2ccc(F)cc2O)c1 [Compound 346] | < 1000
N#Cc1ccc(OCC(=O)N2CCC(CCc3ccc4c(c3)OCCO4)CC2)c(-c2ccc(F)cc2O)c1 [Compound 347] | < 1000
O=C(COc1ccccc1-c1ccc(F)cc1O)N1CCC(CCc2ccccc2)CC1 [Compound 348] | < 1000
O=C(COc1ccccc1-c1ccc(F)cc1O)N1CCC(CCc2ccc(OCCN3CCOCC3)cc2)CC1 [Compound 349] | 1000 to 10000
COc1cccc(CCC2CCN(C(=O)COc3cccnc3-c3ccc(F)cc3O)CC2)c1 [Compound 350] | < 1000
O=C(COc1ccc(C(F)(F)F)cc1-c1ccc(F)cc1O)N1CCC(CCc2ccccc2)CC1 [Compound 351] | < 1000
COc1cccc(CCC2CCN(C(=O)COc3ccc(C#N)cc3-c3ccc(F)cc3O)CC2)c1 [Compound 352] | < 1000
